In patent US5599974A, “Aldehydic agents for allosteric modification of hemoglobin” (Center for Innovative Technology, priority 1994, dated 1997):

Key:
human hemoglobin (HbA) = target: T1, human hemoglobin (HbA) (Homo sapiens, UniProt P69905); assay: Oxygen equilibrium studies of hemoglobin solutions (Hem-O-Scan oxygen dissociation curves); assay type: biochemical; settings: hemoglobin solution; for P50 D (aver.) / ΔP50 (P50 D - P50 C): Hb 2.7 mM; for P50 D (aver.): compound 10 mM (approx. 4:1), 50 mM HEPES pH 7.4, incubated at 4° C. for two hours; for ΔP50 (P50 D - P50 C): compound 10 mM, 50 mM HEPES pH 7.4, positive = right shift
T1 construct: hemoglobin solution
Text: In blood, hemoglobin is in equilibrium between two allosteric structures. In the "T" (for tense) state, hemoglobin is de-oxygenated. In the "R" (for relaxed) state, hemoglobin is oxygenated. An oxygen equilibrium curve can be scanned using well known equipment such as the Aminco™ Hem-o-scan to evaluate the affinity and degree of cooperativity (allosteric action) of hemoglobin. In the scan, the Y-axis plots the percent of hemoglobin oxygenation and the X-axis plots the partial pressure of oxygen in millimeters of mercury (mm Hg). If a horizontal line is drawn from the 50% oxygen saturation point to the scanned curve and a vertical line is drawn from the intersection point of the horizontal line with the curve to the partial pressure X-axis, a value commonly known as the P50 is determined. This is the pressure when the hemoglobin is 50% saturated with oxygen. By comparing the P50 value for treated hemoglobin to the P50 value for untreated normal adult human hemoglobin (HbA) under physiological conditions (i.e., 37° C., pH=7.4, and partial carbon dioxide pressure of 40 mm Hg), the degree of allosteric modification can be determined. When the P50 value for treated hemoglobin is lower than for HbA, a high oxygen affinity hemoglobin is indicated and the curve is said to be "left-shifted". Conversely, when the P50 value for treated hemoglobin is higher than for HbA, a low oxygen affinity hemoglobin is indicated and the curve is said to be "right-shifted".
In the oxygen equilibrium studies, the HbA was further purified by dialysis against pH 8.6. Tris buffer (50 mM, containing 40 mg EDTA/L) to remove any residual A2 hemoglobin. The pure HbA fraction was concentrated by using a Schleicher and Schuell colloidion bag apparatus, available from Schleicher and Schuell, Inc., with HEPES buffer (50 mM, pH 7.4) as the exchange buffer. The Hb concentration was determined by using the cyanmet method. The Hb concentration at this point was usually found to be around 35 g% (approximately 5.4 mM). Less than 5% methemoglobin was noted even after several days at 4° C. Oxygen dissociation curves were recorded on an AMINCO Hem-0-Scan oxygen dissociation analyzer available from Travenol Laboratories.
All compounds were dissolved in 50 mM HEPES buffer, pH 7.4, to give 20 mM of drug solution. The Hb (5.4 mM, in HEPES, pH 7.4) and the test compounds (20 mM) were mixed in 1:1 volume ratio (50μL of Hb+50μL of compound solution) to give final concentrations of 2.7 mM and 10mM, respectively (a molar ratio of test compound to hemoglobin of approximately 4:1). A control experiment was prepared by the addition of 50 μL of Hb to 50 μL of HEPES buffer. The mixtures were incubated at 4° C. for two hours before running the oxygen dissociation curves.

HbA = target: T2, HbA (Homo sapiens, UniProt P69905); assay: X-ray diffraction analysis of HbA/drug complexes (difference electron-density maps); assay type: binding; settings: HbA tetramer/drug molar ratio 1:5 (TB17 1:10), Schiff base reduced, deoxygenated crystals
T2 construct: co-crystals with compounds
Protocol: Reaction of the drug compounds with HbA, crystallization and X-ray data collection of the HbA/drug complexes were performed according to the procedures of Wireko et al., Proc. Natl. Acad. Sci. USA, 1991, 88, 2209, which is herein incorporated by reference, with some slight modifications. Freshly prepared solutions of the synthesized compounds in potassium phosphate buffer were incubated at oxy HbA tetramer/drug molar ratios of 1:5 or 1:10 for at least 24 hours. Sodium cyanoborohydrie in phosphate buffer was added in 10- to 50-fold molar excess of HbA tetramer to reduce the Schiff's base adduct for at least 24 hours. The deoxygenated HbA/compound complexes were set up for crystallizations following the procedures described in Perutz et al., Crys. Growth, 1968, 2, 54, which is herein incorporated by reference, with some slight modifications. X-ray quality crystals for all complexes were obtained after three to seven days. Crystals of TB19 (discussed below) grown with HbA incubated and reduced under deoxygenated conditions was also used for data collection.
X-ray diffraction data for the MS2 complex (discussed below) was collected using a Rigaku AFC5R rotating anode diffractometer to a resolution of 4Å. All hk±1 reflections and their Friedel pairs were collected. One crystal, dimensions 0.3 to 1.2 mm was used for collection. Diffraction data for the rest of the complexes were collected with a Rigaku AFC5R rotating anode diffractometer equipped with an R-axis IIC image plate system, all to a resolution of 1.94A. Crystals of linear dimensions 0.2 to 0.5 mm were used. Data reduction, structure solution and calculation of Fourier difference electron-density maps were as described in Wireko et al., Proc. Natl. Acad. Sci. USA, 1991, 88, 2209.
Models of the compounds created with MMOD and minimized with MM2 force field were fitted to the electron-density by using FRODO on an EVANS and SUTHERLAND PS390 graphic station.
X-ray diffraction analyses were used to study several of the new drug complexes including MS1, MS2, TB8, TB10, TB17, TB19, TB32, TB36, TB62, and TB63. The difference electron-density maps of all complexes discussed are that of the HbA tetramer/drug molar ratio of 1:5, except TB17 which is 1:10. All drug molecules contain at least two functionalities, an aldehyde and a carboxylate, common to all of them. […] The only exception was MS2 where only one of the carboxylate oxygens was involved in the salt bridge interaction. The above binding site, which is common to all of the complexes, will be referred to as the α-cleft binding site. Some of the above drug compounds have additional functional groups which are also involved in additional interaction with other HbA residues, including hydrogen bonding, van der Waals interaction, and a second covalent bonding.
All complexes have two molecules of the drug compounds bound at the above-mentioned α-cleft site and are related by the two fold noncrystallographic axis. These sites are further noted as the α1-cleft site (Val-1α1 binding site), and the α2-cleft site (Val-1α2 binding site). In all complexes, the electron density at the α2-cleft site were slightly bigger and better defined than the electron density at the α1-cleft site. In addition to the binding at the α-cleft site, some of the drug compounds also bind to other secondary sites, including other sites in the α-cleft water cavity, the β-cleft water cavity located at Val-1β, and the Hb polymer contact site located near the residues His-116β and His-117β.

whole blood = assay: Whole-blood studies: effect on the oxygen affinity of whole blood; assay type: cell-based; settings: for P50 D (aver.): heparinized whole blood mixed 1:1 with test compound solution, equilibrated 1 hour at 37° C., P50 C 25.0; for direction of shift of the oxygen equilibrium curve / ΔP50 D: whole blood; for ΔP50 D: 1 hour at 37° C., P50 D - P50 C

Row | P50 D (aver.) (human hemoglobin (HbA)) [mm Hg] | ΔP50 (P50 D - P50 C) (human hemoglobin (HbA)) [mm Hg] | direction of shift of the oxygen equilibrium curve (human hemoglobin (HbA)) | Molecule | binding sites in HbA seen in the difference electron-density map (HbA) | P50 D (aver.) (whole blood) [mm Hg] | direction of shift of the oxygen equilibrium curve (whole blood) | ΔP50 D (whole blood) [mm Hg]
1 | 18.0 | -2.0 | – | 2-phenylethyloxy-5-formylbenzoic acid [TB32] | – | – | – | –
2 | 21.0 | 1.0 | – | O=Cc1ccc(O)c(C(=O)O)c1 [MS1, 5-formylsalicyclic acid] | four binding sites for MS1 in the central water cavity of HbA | – | – | –
3 | 21.0 | 2.0 | – | O=Cc1ccc(C(=O)O)cc1 [MS2, 4-carboxybenzaldehyde] | binding exclusively at the two symmetry-related α-cleft sites | – | – | –
4 | 31.0 | 9.5 | – | O=Cc1ccc(OCc2ccccc2COc2ccc(C=O)cc2C(=O)O)c(C(=O)O)c1 [TB5, α, α'-bis(2-carboxy-4-formylphenoxy)-o-xylene] | – | – | – | –
5 | 21.0 | -1.0 | – | CC(=O)Oc1ccc(C=O)cc1C(=O)O [TB8, 5-formylaspirin] | binding of TB8 at the two symmetry-related α-cleft sites of Val-1α | – | – | –
6 | 26.0 | 4.5 | – | O=Cc1ccc(OCc2cccc(COc3ccc(C=O)cc3C(=O)O)c2)c(C(=O)O)c1 [TB10, α,α'bis(2-carboxy-4-formylphenoxy)-m-xylene] | – | – | – | –
7 | 24.0 | 2.5 | – | O=Cc1ccc(OCc2ccc(COc3ccc(C=O)cc3C(=O)O)cc2)c(C(=O)O)c1 [TB11, α,α'bis(2-carboxy-4-formylphenoxy)-p-xylene] | – | – | – | –
8 | – | – | right shift | O=Cc1ccc(OCc2ccccc2)c(C(=O)O)c1 [TB17, 2-benzyloxy-5-formylbenzoic acid] | three molecules of TB17 reacted to the Hb tetramer | 14.5 | left shift | -9.5
9 | 40.0 | 18.0 | right shift | O=Cc1ccc(OCC=CCOc2ccc(C=O)cc2C(=O)O)c(C(=O)O)c1 [TB18, 1,4-bis(2-carboxy-4-formylphenoxy)-2-butene] | – | 19.0 | left shift | -6.0
10 | 14.0 | -6.0 | – | O=Cc1ccc(OCc2ccc(C(=O)O)cc2)c(C(=O)O)c1 [TB34, α-(2-carboxy-4-formylphenoxy)-p-toluic acid] | – | – | – | –
11 | 25 | 4 | – | O=Cc1ccc(OCCCCOc2ccc(C(=O)O)cc2)c(C(=O)O)c1 [TB35] | – | – | – | –
12 | 44.0 | 22.0 | – | O=Cc1ccc(OCCCOc2ccc(C=O)cc2C(=O)O)c(C(=O)O)c1 [TB36, 1,3-bis(2-carboxy-4-formylphenoxy)-propane] | binding exclusively at the two symmetry-related α-cleft sites | – | – | –
13 | 14.0 | -6.0 | – | O=Cc1ccc(OC(=O)/C=C/C(=O)Oc2ccc(C=O)cc2C(=O)O)c(C(=O)O)c1 [TB40, bis(2-carboxy-4-formylphenyl)-fumerate] | – | – | – | –
14 | 39.0 | 17.0 | – | O=Cc1ccc(OCCCCCCOc2ccc(C=O)cc2C(=O)O)c(C(=O)O)c1 [TB42, 1,6-bis(2-carboxy-4-formylphenoxy)-hexane] | – | – | – | –
15 | 16.0 | -4.0 | – | O=Cc1ccc(OC(=O)c2ccc(C(=O)Oc3ccc(C=O)cc3C(=O)O)cc2)c(C(=O)O)c1 [TB56, bis(2-carboxy-4-formylphenyl)-terephthalate] | – | – | – | –
16 | 33.0 | 11.0 | – | O=Cc1ccc(OCCCCCOc2ccc(C=O)cc2C(=O)O)c(C(=O)O)c1 [TB57, 1,5-bis(2-carboxy-4-formylphenoxy)-pentane] | – | – | – | –
17 | 37.0 | 15.0 | – | O=Cc1ccc(OCCCCCCCCOc2ccc(C=O)cc2C(=O)O)c(C(=O)O)c1 [TB58, 1,8-bis(2-carboxy-4-formylphenoxy)-octane] | – | – | – | –
18 | 51.0 | 29.0 | – | O=Cc1ccc(OCOc2ccc(C=O)cc2C(=O)O)c(C(=O)O)c1 [TB62/45, bis(2-carboxy-4-formylphenoxy)-methane] | binding exclusively at the two symmetry-related α-cleft sites | – | – | –
19 | 46.0 | 24.0 | – | O=Cc1ccc(OCCOc2ccc(C=O)cc2C(=O)O)c(C(=O)O)c1 [TB63/41, 1,2-Bis(2-Carboxy-4-formylphenoxy)-ethane] | binding exclusively at the two symmetry-related α-cleft sites | – | – | –
20 | 30.0 | 8.0 | – | CC(CCCOc1ccc(C=O)cc1C(=O)O)Oc1ccc(C=O)cc1C(=O)O (centres unmarked) [TB72, 1,4-bis(2-carboxy-4-formylphenoxy)-pentane] | – | – | – | –
21 | 33.0 | 11.0 | – | O=Cc1ccc(OCCCCCCCCCCOc2ccc(C=O)cc2C(=O)O)c(C(=O)O)c1 [TB73, 1,10-bis(2-carboxy-4-formylphenoxy)-decane] | – | – | – | –
22 | 19.5 | -1.5 | – | O=Cc1ccc(OC(=O)C(=O)Oc2ccc(C=O)cc2C(=O)O)c(C(=O)O)c1 [TB77, bis(2-carboxy-4-formylphenyl)-oxalate] | – | – | – | –
23 | 14.5 | -5.5 | – | O=Cc1ccc(OC(=O)CCC(=O)Oc2ccc(C=O)cc2C(=O)O)c(C(=O)O)c1 [TB80, bis(2-carboxy-4-formylphenyl)-succinate] | – | – | – | –
